The experiment has as its target Autotaxin (Homo sapiens, UniProt Q13822). The experiment is described as follows: Inhibition of human recombinant ATX lysophospholipase activity expressed in insect sf9 cells using FS-3 fluorogenic substrate preincubated for 10 mins measured after 5 and 25 mins by fluorometric analysis.

These results are taken from BindingDB's records for doi:10.1016/j.bmcl.2011.03.068 (The University of Utah, 2011).

SMILES strings stand for the structures.

A word on the Ki: it is a measure of affinity in units of concentration, obtained from inhibition or displacement. With `CCCCCCCCCCCCCC(=O)Nc1ccc(C(O)P(=O)(O)O)cc1` (configuration not stated), the inhibition constant Ki turned out to be 0.024 µM.

Turning to `CCCCCCCCCC(=O)Nc1ccc(C(O)P(=O)(O)O)cc1` (configuration not stated), the Ki is 0.024 µM.
